{"source": "paper PMC5877410", "about": "(Journal of medicinal chemistry, 2017)", "key": {"NAP1 spores": {"test_system": "NAP1 spores", "experiment": "Phase-contrast microscope spore count assay", "format": "cell-based, Clostridium difficile"}, "Caco-2 monolayers": {"test_system": "Caco-2 monolayers", "details": "cited from earlier work"}, "ATCC strain 630": {"test_system": "ATCC strain 630", "details": "murine infection model, strain ATCC 630; cited from earlier work"}, "Caco-2 cell monolayer [1]": {"test_system": "Caco-2 cell monolayer"}, "[2]": {"target": "C. difficile spore germination", "format": "cell-based, Clostridium difficile", "details": "inhibitor evaluated at 0.2 mM, varying TCA; average of three experiments ± SEM"}, "NAP1 C. difficile spores": {"test_system": "NAP1 C. difficile spores", "experiment": "Optical density", "format": "cell-based, Clostridium difficile"}, "Caco-2 cell monolayer [3]": {"test_system": "Caco-2 cell monolayer", "experiment": "Caco-2 cell monolayer bidirectional permeability assay", "details": "10 μM"}, "[4]": {"details": "10 μM compound, 2000 μM TCA, after 20 min, mean ± SD, N = 3"}}, "note": "Several values for one entry are separate records, joined by “and”; a condition that tells them apart may be missing. Equal entries are not always repeated. Where two headings read alike, the source gives them in different places.", "data": [{"compound": "COC(=O)CC[C@@H](C)[C@H]1CC[C@H]2[C@@H]3[C@H](O)C[C@@H]4C[C@H](O)CC[C@]4(C)[C@H]3CC[C@]12C", "note": "[2a, methyl (R)-4-((3R,5S,7R,8R,9S,10S,13R,14S,17R)-3,7-dihydroxy-10,13-dimethylhexadecahydro-1H-cyclopenta[a]phenanthren-17-yl)pentanoate, reference compound]", "values": [{"measurement": "Percent Spore Germination t20", "setting": "NAP1 spores; [4]", "result": "71 ± 1", "unit": "%"}]}, {"compound": "CO[C@@H]1CC[C@@]2(C)[C@@H](C1)C[C@H](OC)[C@@H]1[C@@H]2CC[C@]2(C)[C@@H]([C@H](C)CCC(=O)O)CC[C@@H]12", "note": "[6b, (R)-4-((3R,5S,7S,8R,9S,10S,13R,14S,17R)-3,7-Dimethoxy-10,13-dimethylhexadecahydro-1H-cyclopenta[a]-phenanthren-17-yl)pentanoic Acid]", "values": [{"measurement": "Percent Spore Germination t20", "setting": "NAP1 spores; [4]", "result": "71 ± 2", "unit": "%"}]}, {"compound": "CO[C@@H]1CC[C@@]2(C)[C@@H](C1)C[C@H](OS(=O)(=O)[O-])[C@@H]1[C@@H]2CC[C@]2(C)[C@@H]([C@H](C)CCC(=O)N3CCCC3)CC[C@@H]12.[Na+]", "note": "[21b, Sodium (3R,5S,7S,8R,9S,10S,13R,14S,17R)-3-Methoxy-10,13-dimethyl-17-((R)-5-oxo-5-(pyrrolidin-1-yl)pentan-2-yl)-hexadecahydro-1H-cyclopenta[a]phenanthren-7-yl Sulfate]", "values": [{"measurement": "Percent Spore Germination t20", "setting": "NAP1 spores; [4]", "result": "30 ± 6", "unit": "%"}, {"measurement": "Percent Spore Germination t0", "setting": "NAP1 spores; 10 μM compound, 2000 μM TCA, time 0, mean ± SD, N = 3", "result": "18 ± 2", "unit": "%"}, {"measurement": "Inhibition of spore germination at 50 μM", "setting": "NAP1 spores; 50 μM compound, 2000 μM TCA (Table S1)", "result": "complete inhibition of spore germination"}]}, {"compound": "C[C@H](CCC(=O)NCCS(=O)(=O)O)[C@H]1CC[C@H]2[C@@H]3[C@H](O)C[C@@H]4C[C@H](O)CC[C@]4(C)[C@H]3C[C@H](O)[C@]12C", "note": "[TCA, taurocholic acid]", "values": [{"measurement": "transport ratio", "setting": "Caco-2 monolayers", "result": "greater than 10"}]}, {"compound": "C[C@H](CCC(=O)Nc1cccc(S(=O)(=O)O)c1)[C@H]1CC[C@H]2[C@@H]3[C@H](O)C[C@@H]4C[C@H](O)CC[C@]4(C)[C@H]3C[C@H](O)[C@]12C", "note": "[compound 3, reference compound]", "values": [{"measurement": "Effect on CDI symptoms", "setting": "ATCC strain 630", "result": "eradicated CDI symptoms"}, {"measurement": "Percent Spore Germination t20", "setting": "NAP1 spores; [4]", "result": "74 ± 2", "unit": "%"}]}, {"compound": "sodium 5-((R)-3-((3R,5R,7R,8R,9S,10S,13R,14S,17R)-7-hydroxy-3-methoxy-10,13-dimethyl-hexadecahydro-1H-cyclopenta[a]phenanthren-17-yl)butyl)-tetrazol-1-ide [37a]", "values": [{"measurement": "mean permeability A–B", "setting": "Caco-2 cell monolayer [1]", "result": "10.7 10^−6 cm/s"}, {"measurement": "mean permeability B–A", "setting": "Caco-2 cell monolayer [1]", "result": "1.9 10^−6 cm/s"}, {"measurement": "Ki", "setting": "[2]", "result": "17.9 ± 4.6", "unit": "µM"}, {"measurement": "Concentration Required for Complete Inhibition", "setting": "NAP1 C. difficile spores", "result": 5, "unit": "µM"}, {"measurement": "Percent Spore Germination t0", "setting": "NAP1 spores", "result": "20% and 16 ± 4%"}, {"measurement": "Percent Spore Germination t20", "setting": "NAP1 spores", "result": 25, "unit": "%"}, {"measurement": "fold greater permeability in the A–B direction than C7-sulfated analogue 38a", "setting": "Caco-2 cell monolayer [3]", "result": "over 25 times"}]}, {"compound": "sodium 5-((R)-3-((3R,5S,7R,8R,9S,10S,13R,14S,17R)-3,7-dihydroxy-10,13-dimethylhexadecahydro-1H-cyclopenta[a]phenanthren-17-yl)butyl)tetrazol-1-ide [35a]", "values": [{"measurement": "Concentration Required for Complete Inhibition", "setting": "NAP1 C. difficile spores", "result": 10, "unit": "µM"}, {"measurement": "Percent Spore Germination Relative to control", "setting": "NAP1 spores", "result": "12% and 12 ± 6%"}, {"measurement": "Percent Spore Germination t0", "setting": "NAP1 spores", "result": "15 ± 6", "unit": "%"}, {"measurement": "Percent Spore Germination t20", "setting": "NAP1 spores", "result": "22 ± 6", "unit": "%"}]}, {"compound": "sodium 5-((R)-3-((3R,5S,7R,8R,9S,10S,13R,14S,17R)-3-methoxy-10,13-dimethyl-7-(sulfonatooxy)hexadecahydro-1H-cyclopenta[a]phenanthren-17-yl)-butyl)tetrazol-1-ide [38a]", "values": [{"measurement": "mean permeability A–B", "setting": "Caco-2 cell monolayer [1]", "result": "0.4 10^−6 cm/s"}, {"measurement": "mean permeability B–A", "setting": "Caco-2 cell monolayer [1]", "result": "0.4 10^−6 cm/s"}, {"measurement": "Percent Spore Germination t0", "setting": "NAP1 spores", "result": "20 ± 11", "unit": "%"}, {"measurement": "Percent Spore Germination t20", "setting": "NAP1 spores", "result": "48 ± 11", "unit": "%"}]}]}
